PMC6692079 (Journal of medicinal chemistry, 2018)
Entries after “also recorded” stand apart in the source; their conditions may differ. Structures can show the parent of a compound that is named as a salt. Where two headings read alike, the source gives them in different places.

What was measured:
human κ opioid receptor [1] = biological target: T1, human κ opioid receptor (Homo sapiens, UniProt P41145); assay: biochemical; format: biochemical; conditions: for δ/κ: selectivity for κ relative to δ
T1 sequence (P41145 whole entry): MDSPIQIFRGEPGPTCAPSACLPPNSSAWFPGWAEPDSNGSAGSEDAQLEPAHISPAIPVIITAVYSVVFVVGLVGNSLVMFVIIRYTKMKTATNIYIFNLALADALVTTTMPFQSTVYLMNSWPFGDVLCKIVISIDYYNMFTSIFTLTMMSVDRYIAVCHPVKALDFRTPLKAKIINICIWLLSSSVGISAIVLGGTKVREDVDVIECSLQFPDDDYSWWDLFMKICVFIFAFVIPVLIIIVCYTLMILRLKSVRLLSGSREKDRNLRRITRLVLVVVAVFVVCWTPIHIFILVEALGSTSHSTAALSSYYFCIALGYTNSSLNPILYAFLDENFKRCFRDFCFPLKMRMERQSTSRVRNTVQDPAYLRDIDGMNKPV

human δ opioid receptor [2] = biological target: T2, human δ opioid receptor (Homo sapiens, UniProt P41143); assay: biochemical
T2 sequence (P41143 whole entry): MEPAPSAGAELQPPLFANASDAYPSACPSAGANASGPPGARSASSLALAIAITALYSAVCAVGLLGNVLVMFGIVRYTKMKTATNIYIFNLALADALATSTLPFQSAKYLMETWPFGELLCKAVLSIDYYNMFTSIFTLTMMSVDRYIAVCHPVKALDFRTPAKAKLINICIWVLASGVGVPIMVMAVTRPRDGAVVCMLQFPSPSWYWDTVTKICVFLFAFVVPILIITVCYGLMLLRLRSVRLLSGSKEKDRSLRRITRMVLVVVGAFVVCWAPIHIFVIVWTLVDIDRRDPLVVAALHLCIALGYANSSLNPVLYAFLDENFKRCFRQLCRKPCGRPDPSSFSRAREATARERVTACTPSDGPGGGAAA

human δ opioid receptor [3] = biological target: T2, human δ opioid receptor; conditions: cloned human receptor, cited from earlier work
human κ opioid receptor [4] = biological target: T1, human κ opioid receptor; conditions: cloned human receptor, cited from earlier work
human μ opioid receptor [5] = biological target: T3, human μ opioid receptor (Homo sapiens, UniProt P35372); assay: biochemical
T3 sequence (P35372 whole entry): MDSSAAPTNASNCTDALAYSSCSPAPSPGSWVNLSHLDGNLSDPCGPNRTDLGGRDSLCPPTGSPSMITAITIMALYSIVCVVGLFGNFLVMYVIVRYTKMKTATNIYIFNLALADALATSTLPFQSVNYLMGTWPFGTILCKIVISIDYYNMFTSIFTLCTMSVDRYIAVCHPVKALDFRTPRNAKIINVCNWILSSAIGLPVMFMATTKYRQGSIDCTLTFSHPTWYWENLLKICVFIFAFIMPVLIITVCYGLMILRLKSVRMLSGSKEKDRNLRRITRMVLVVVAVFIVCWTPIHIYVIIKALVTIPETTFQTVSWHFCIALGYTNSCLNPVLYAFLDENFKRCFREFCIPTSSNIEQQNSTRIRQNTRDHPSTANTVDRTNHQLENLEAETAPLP

[6] = Pharmacokinetics in plasma and brain after a single sc dose; format: in vivo, Male Sprague—Dawley rats; conditions: 5 mg/kg sc
human μ opioid receptor [7] = biological target: T3, human μ opioid receptor; conditions: cloned human receptor; cited from earlier work
[8] = 5 mg/kg in male rats, cited from earlier work

Row | Compound | δ/κ (human κ opioid receptor [1]; ratio of Ke values) | Kb (human δ opioid receptor [2]) [µM] | further results
1 | CC(C)[C@@H](CN1CCCCC1C)NC(=O)[C@H]1Cc2ccc(O)cc2CN1 (mixture of isomers) [Compound 14, (3R)-7-Hydroxy-N-{(1S)-2-methyl-1-[((2RS)-2-methylpiperidin-1-yl)methyl]propyl}−1,2,3,4-tetrahydroisoquinoline-3-carboxamide Dihydrochloride] | >199 | > 3 | –
2 | CC(C)[C@@H](CN1CCCCC1)NC(=O)[C@H]1Cc2ccc(O)cc2CN1 [Compound 1, (3R)‑7-Hydroxy‑N‑[(1S)‑2-methyl-1-(piperidin-1-ylmethyl)propyl]-1,2,3,4-tetrahydroisoquinoline-3-carboxamide] | – | – | Ke δ, DPDPE (human δ opioid receptor [3]; previously reported): >3000 nM; Ke κ, U69,593 (human κ opioid receptor [4]; previously reported): 6.80 ± 2.1 nM
3 | CC(C)[C@@H](CN1CCOCC1)NC(=O)[C@H]1Cc2ccc(O)cc2CN1 [Compound 6, (3R)-7-Hydroxy-N-[(1S)-2-methyl-1-(morpholin-4-ylmethyl)-propyl]-1,2,3,4-tetrahydroisoquinoline-3-carboxamide Dihydrochloride] | – | > 3 | –
4 | CC(C)[C@@H](CN1CCN(C)CC1)NC(=O)[C@H]1Cc2ccc(O)cc2CN1 [Compound 7, (3R)-7-Hydroxy-N-{(1S)-2-methyl-1-[(4-methylpiperizin-1-yl)-methyl]propyl}−1,2,3,4-tetrahydroisoquinoline-3-carboxamide Trihydrochloride] | >30 | > 3 | –
5 | CCN(CC)C[C@@H](NC(=O)[C@H]1Cc2ccc(O)cc2CN1)C(C)C [Compound 8, (3R)-N-{(1S)-1-[(4,4-Diethylamino)methyl]-2-methylpropyl]-7-hydroxy-1,2,3,4-tetrahydroisoquinoline-3-carboxamide Dihydrochloride] | >72 | > 3 | Kb (human μ opioid receptor [5]): 0.69 ± 0.11 µM; Kb (human κ opioid receptor [1]): 0.0418 ± 0.012 µM
6 | CC(C)CN(CC(C)C)C[C@@H](NC(=O)[C@H]1Cc2ccc(O)cc2CN1)C(C)C [Compound 10, (3R)-N-{(1S)-1-{[Bis(2-methylpropyl)amino]methyl}−2-methyl-propyl]-7-hydroxy-1,2,3,4-tetrahydroisoquinoline-3-carboxamide Dihydrochloride] | – | > 3 | –
7 | CC1CCN(C[C@@H](NC(=O)[C@H]2Cc3ccc(O)cc3CN2)C(C)C)CC1 [Compound 12, (3R)-7-Hydroxy-N-{(1S)-2-methyl-1-[(4-methylpiperidin-1-yl)-methyl]propyl}−1,2,3,4-tetrahydroisoquinoline-3-carboxamide Dihydrochloride] | – | > 3 | persistence in plasma and brain post dose ([6]; last sampling time): 168 h; clearance ([6]; plasma): 43.75 mL/min/kg; brain penetration ([6]; rats, 5 mg/kg): does indeed penetrate the brain; also recorded: crossed the blood—brain barrier; also recorded: did indeed readily penetrate the brain
8 | CC(C)[C@@H](CN1CCC(C)(C)CC1)NC(=O)[C@H]1Cc2ccc(O)cc2CN1 [Compound 18, (3R)-N-{(1S)-1-[(4,4-Dimethylpiperidin-1-yl)methyl]-2-methylpropyl}−7-hydroxy-1,2,3,4-tetrahydroisoquinoline-3-carboxamide Dihydrochloride] | – | – | Kb (human κ opioid receptor [1]): 0.00357 ± 0.0015 µM
9 | CC(C)[C@@H](CN1CCC(C(F)(F)F)CC1)NC(=O)[C@H]1Cc2ccc(O)cc2CN1 [Compound 20, (3R)-7-Hydroxy-N-[(1S)-2-methyl-1-{[4-(trifluoromethyl)-piperidin-1-yl]methyl}propyl]-1,2,3,4-tetrahydroisoquinoline-3-carboxamide Dihydrochloride] | >640 | > 3 | –
10 | COC1CCN(C[C@@H](NC(=O)[C@H]2Cc3ccc(O)cc3CN2)C(C)C)CC1 [Compound 22, (3R)-7-Hydroxy-N-{(1S)-2-methyl-1-[(4-methoxypiperidin-1-yl)-methyl]propyl}−1,2,3,4-tetrahydroisoquinoline-3-carboxamide Dihydrochloride] | >459 | > 3 | –
11 | CC(C)[C@@H](CN1CCC(N(C)C)CC1)NC(=O)[C@H]1Cc2ccc(O)cc2CN1 [Compound 23, (3R)-N-[(1S)-1-{[4-(Dimethylamino)piperidin-1-yl]methyl}−2-methylpropyl]-7-hydroxy-1,2,3,4-tetrahydroisoquinoline-3-carboxamide Trihydrochloride] | >371 | > 3 | –
12 | CC(C)[C@@H](CN1CCC(F)(F)CC1)NC(=O)[C@H]1Cc2ccc(O)cc2CN1 [Compound 24, (3R)-N-{[(1S)-1-[4,4-Difluoropiperidin-1-yl]methyl]-2-methyl-propyl}−7-hydroxy-1,2,3,4-tetrahydroisoquinoline-3-carboxamide Dihydrochloride] | >254 | > 3 | –
13 | CC(C)[C@@H](CN1CCC(C#N)CC1)NC(=O)[C@H]1Cc2ccc(O)cc2CN1 [Compound 25, (3R)-N-{(1S)-1-[(4-Cyanopiperidin-1-yl)methyl]-2-methylprolyl}−7-hydroxy-1,2,3,4-tetrahydroisoquinoline-3-carboxamide Dihydrochloride] | >236 | > 3 | –
14 | CC(C)[C@@H](CN1CCC(C(N)=O)CC1)NC(=O)[C@H]1Cc2ccc(O)cc2CN1 [Compound 26] | >932 | > 3 | –
15 | CC1CCN(C[C@@H](NC(=O)[C@H](N)Cc2ccc(O)cc2)C(C)C)CC1 [Compound 36, N-{(1S)-2-Methyl-1-[(4-methylpiperidin-1-yl)methyl]propyl}-D-ty-rosinamide Dihydrochloride] | >8 | > 3 | Kb (human μ opioid receptor [5]): > 3 µM; Kb (human κ opioid receptor [1]): 0.387 ± 0.089 µM; fold loss in κ opioid receptor antagonist potency relative to 12 (human κ opioid receptor [1]): over 1000; μ/κ (human κ opioid receptor [1]; ratio of Ke values, selectivity for κ relative to μ): >8
16 | CC(C)[C@@H](CN1CC[C@@](C)(c2cccc(O)c2)[C@@H](C)C1)NC(=O)[C@H]1Cc2ccc(O)cc2CN1C [Compound 46, reference compound] | – | – | Ke δ, DPDPE (human δ opioid receptor [3]): 491 ± 120 nM; Ke μ, DAMGO (human μ opioid receptor [7]): 210 ± 60 nM; Ke κ, U69,593 (human κ opioid receptor [4]): 0.16 ± 0.06 nM
17 | CC(C)[C@@H](CN1CC[C@@](C)(c2cccc(O)c2)[C@@H](C)C1)NC(=O)[C@H]1Cc2ccc(O)cc2CN1 [JDTic, (3R)-1,2,3,4-tetrahydro-7-hydroxy-N-[(1S)-1-[[(3R,4R)-4-(3-hydroxy-phenyl)-3,4-dimethyl-1-piperidinyl]methyl]-2-methylpropyl]-3-iso-quinolinecarboxamide] | – | – | half-life ([8]; brain): 51.8 h; half-life ([8]; plasma): 28.4 h
